# In US20150038415A1, “PROCESS FOR THE MANUFACTURING OF A DRUG DELIVERY SYSTEM BASED ON A POLYMER COMPRISING A DISPERSED BIOACTIVE AGENT” (DSM IP Assets B.V., priority 2011, published 2015):
# “Also recorded” adds a separate entry of the source.
# System: Nb2 (rat lymphoma) cells
# Assay: Bioactivity of released rHGH by Nb2 cell proliferation assay
# Format: cell-based
# Experimental: Bioactivity of rHGH present in release samples was assessed by measuring its influence on the proliferation of Nb2 (rat lymphoma) cells.^1 1 Bozzola, M. et. al. Evaluation of growth hormone bioactivity using the Nb2 cell bioassay in children with growth disorders. J. Endocrinol Invest.1998, 21, 765-770
# The method used is described below:^2 2 Tanaka. T. et. al. A new sensitive and specific bioassay for lactogenic hormones: measurement of prolactin and growth hormone in human serum. J. Clin. Endocrinol. Metab.1980, 51, 1058-1063 […]
# Cells were then counted with a Guava Easycyte (Millipore) capillary cytometer using Viacount reagent (Millipore) to stain cells, according to the recommendations of the manufacturer. […]
# Samples originating from the release experiments were diluted in incubation medium to reach an expected (according to HPLC quantification) concentration of rHGH between 80 and 280 pg/mL(concentration range in which growth of Nb2 cells is rHGH concentration-dependent). […]
# After incubation, cells were stained with 50 uL Viacount reagent and viable cells were counted by capillary cytometry.
# Bioactivity of rHGH released from the fibers was measured through use of the cell-proliferation assay described above. Release samples were introduced to the cell culture medium and the effect of rHGH on cell proliferation was measured via cell counting with capillary cytometry.
substance,measurement,setting,value
"rHGH: lyophilized powder of recombinant human growth hormone, dispersed in PEA-III-Ac-Bz film cut into fibers",Bioactivity of rHGH released from the fibers (cell proliferation assay),"rHGH released from PEA-III-Ac-Bz fibers into release medium (PBS pH 7.4 with BSA and penicillin) at 37° C., Nb2 cells incubated 72 hours",retained; also recorded: bioactive; also recorded: retains its bioactivity
same,Cell response to release samples (cell counting with capillary cytometry),"release samples taken at 1 h, 3 h, 6 h, 24 h & 48 h from PEA-III-Ac-Bz fibers with approximately 1-2 wt % rHGH",positive cell response
